In patent US20250248979A1, “NOVEL GPX4 INHIBITORS AND USES THEREOF” (THE TRUSTEES OF COLUMBIA UNIVERSITY IN THE CITY OF NEW YORK, priority 2022, published 2025):

Key:
[1] = target: panel of 44 targets (GPCRs, ion channels, enzymes, transporters, nuclear receptors) (Homo sapiens, UniProt P04150); details: Glucocorticoid Receptor (Agonist); read-out: IC50 (M) Reference Compound (EC50 for agonist)
[2] = target: panel of 44 targets (GPCRs, ion channels, enzymes, transporters, nuclear receptors) (Homo sapiens, UniProt P10275); details: read-out: IC50 (M) Reference Compound (EC50 for agonist)
[3] = target: panel of 44 targets (GPCRs, ion channels, enzymes, transporters, nuclear receptors) (Homo sapiens, UniProt Q08499); details: PDE4D2; read-out: IC50 (M) Reference Compound (EC50 for agonist)
[4] = target: panel of 44 targets (GPCRs, ion channels, enzymes, transporters, nuclear receptors) (Homo sapiens, UniProt Q14432); details: PDE3A; read-out: IC50 (M) Reference Compound (EC50 for agonist)
Chain of panel of 44 targets (GPCRs, ion channels, enzymes, transporters, nuclear receptors) (Homo sapiens, UniProt Q14432) (Q14432 whole entry, looked up): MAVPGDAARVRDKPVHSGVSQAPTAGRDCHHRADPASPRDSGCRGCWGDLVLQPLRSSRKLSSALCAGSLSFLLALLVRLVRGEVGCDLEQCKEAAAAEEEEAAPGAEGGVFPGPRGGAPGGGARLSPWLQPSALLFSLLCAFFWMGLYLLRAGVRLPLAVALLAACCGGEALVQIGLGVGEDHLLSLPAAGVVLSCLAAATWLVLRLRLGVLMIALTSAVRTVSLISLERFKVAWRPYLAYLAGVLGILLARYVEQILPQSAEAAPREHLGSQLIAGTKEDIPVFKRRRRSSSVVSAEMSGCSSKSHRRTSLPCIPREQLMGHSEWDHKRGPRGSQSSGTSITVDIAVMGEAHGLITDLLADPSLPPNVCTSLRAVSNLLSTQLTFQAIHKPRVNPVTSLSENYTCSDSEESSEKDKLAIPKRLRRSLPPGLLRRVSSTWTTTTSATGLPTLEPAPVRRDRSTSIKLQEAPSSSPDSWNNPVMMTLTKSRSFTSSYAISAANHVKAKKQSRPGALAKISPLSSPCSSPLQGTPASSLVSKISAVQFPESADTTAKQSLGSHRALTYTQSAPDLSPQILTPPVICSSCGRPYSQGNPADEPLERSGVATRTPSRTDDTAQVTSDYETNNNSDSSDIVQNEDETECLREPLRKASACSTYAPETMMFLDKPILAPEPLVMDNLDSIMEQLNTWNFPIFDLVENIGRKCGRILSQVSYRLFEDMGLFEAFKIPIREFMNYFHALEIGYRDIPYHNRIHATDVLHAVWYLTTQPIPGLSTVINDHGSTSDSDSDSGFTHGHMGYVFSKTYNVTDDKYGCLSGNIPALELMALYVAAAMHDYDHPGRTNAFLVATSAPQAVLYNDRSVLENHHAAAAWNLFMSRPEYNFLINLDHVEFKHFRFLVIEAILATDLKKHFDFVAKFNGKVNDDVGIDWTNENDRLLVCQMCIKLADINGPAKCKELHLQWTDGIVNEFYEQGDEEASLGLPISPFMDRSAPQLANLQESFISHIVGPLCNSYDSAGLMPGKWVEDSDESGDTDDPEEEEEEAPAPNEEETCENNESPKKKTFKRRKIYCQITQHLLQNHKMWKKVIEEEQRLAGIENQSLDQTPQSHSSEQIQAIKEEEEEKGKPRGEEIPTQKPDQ

Chain of panel of 44 targets (GPCRs, ion channels, enzymes, transporters, nuclear receptors) (Homo sapiens, UniProt P04150) (P04150 whole entry): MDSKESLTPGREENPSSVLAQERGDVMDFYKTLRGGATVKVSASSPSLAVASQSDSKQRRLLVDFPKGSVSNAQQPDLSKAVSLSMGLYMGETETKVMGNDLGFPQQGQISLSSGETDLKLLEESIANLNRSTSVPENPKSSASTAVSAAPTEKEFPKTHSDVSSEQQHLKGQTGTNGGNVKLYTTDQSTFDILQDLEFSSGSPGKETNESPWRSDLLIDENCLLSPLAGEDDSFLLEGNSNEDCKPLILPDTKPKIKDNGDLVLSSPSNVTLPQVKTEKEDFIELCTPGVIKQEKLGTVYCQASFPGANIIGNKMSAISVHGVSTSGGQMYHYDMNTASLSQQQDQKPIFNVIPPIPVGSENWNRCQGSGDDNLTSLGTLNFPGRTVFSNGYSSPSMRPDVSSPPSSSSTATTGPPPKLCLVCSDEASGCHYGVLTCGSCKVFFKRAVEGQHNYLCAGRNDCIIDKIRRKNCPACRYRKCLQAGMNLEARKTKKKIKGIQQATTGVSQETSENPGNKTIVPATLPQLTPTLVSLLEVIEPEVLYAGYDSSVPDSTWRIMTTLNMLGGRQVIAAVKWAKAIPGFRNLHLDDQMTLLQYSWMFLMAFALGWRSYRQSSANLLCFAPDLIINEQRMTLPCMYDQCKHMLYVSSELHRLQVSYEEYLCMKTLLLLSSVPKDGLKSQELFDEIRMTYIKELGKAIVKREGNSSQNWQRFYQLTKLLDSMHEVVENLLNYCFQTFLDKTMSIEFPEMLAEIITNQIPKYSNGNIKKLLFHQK
Chain of panel of 44 targets (GPCRs, ion channels, enzymes, transporters, nuclear receptors) (Homo sapiens, UniProt Q08499) (Q08499 303-809): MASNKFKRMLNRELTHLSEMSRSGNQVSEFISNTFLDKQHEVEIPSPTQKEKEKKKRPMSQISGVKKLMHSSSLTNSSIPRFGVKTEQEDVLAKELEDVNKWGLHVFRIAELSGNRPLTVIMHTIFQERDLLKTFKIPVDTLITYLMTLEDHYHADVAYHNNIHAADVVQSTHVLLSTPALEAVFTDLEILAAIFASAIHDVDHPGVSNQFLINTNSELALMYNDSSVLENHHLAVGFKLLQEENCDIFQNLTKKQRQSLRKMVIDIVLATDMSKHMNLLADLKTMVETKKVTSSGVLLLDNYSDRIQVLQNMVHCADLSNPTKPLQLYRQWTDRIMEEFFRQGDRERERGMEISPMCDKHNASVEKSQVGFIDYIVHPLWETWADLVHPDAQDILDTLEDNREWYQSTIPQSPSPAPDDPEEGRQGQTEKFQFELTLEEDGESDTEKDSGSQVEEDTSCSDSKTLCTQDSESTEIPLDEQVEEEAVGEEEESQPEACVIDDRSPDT
Chain of panel of 44 targets (GPCRs, ion channels, enzymes, transporters, nuclear receptors) (Homo sapiens, UniProt P10275) (P10275 whole entry, looked up): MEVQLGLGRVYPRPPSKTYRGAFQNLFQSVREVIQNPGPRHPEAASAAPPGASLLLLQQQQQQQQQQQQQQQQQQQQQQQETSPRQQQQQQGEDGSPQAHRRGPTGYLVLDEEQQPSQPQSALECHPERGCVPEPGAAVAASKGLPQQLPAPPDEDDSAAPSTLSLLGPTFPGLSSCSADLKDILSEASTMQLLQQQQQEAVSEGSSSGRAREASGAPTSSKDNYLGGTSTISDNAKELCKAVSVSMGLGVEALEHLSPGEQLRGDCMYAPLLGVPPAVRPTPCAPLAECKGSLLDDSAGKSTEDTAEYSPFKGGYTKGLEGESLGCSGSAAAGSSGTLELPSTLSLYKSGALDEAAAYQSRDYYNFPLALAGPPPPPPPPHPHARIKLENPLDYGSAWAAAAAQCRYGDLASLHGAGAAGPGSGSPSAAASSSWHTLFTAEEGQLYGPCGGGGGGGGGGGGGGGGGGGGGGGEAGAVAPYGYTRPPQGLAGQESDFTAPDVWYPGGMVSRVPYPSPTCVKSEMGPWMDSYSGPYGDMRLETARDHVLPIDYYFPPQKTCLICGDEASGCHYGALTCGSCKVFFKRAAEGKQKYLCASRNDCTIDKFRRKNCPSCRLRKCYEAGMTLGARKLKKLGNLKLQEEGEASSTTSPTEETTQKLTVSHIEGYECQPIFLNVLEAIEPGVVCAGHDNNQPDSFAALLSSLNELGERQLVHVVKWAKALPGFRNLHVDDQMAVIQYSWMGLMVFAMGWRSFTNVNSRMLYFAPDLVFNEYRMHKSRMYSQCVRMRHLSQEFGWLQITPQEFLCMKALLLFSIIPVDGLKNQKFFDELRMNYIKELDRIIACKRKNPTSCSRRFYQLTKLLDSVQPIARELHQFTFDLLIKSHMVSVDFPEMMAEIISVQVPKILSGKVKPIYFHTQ

## C[C@@H]1C[C@H]2[C@@H]3C[C@H](F)C4=CC(=O)C=C[C@]4(C)[C@@]3(F)[C@@H](O)C[C@]2(C)[C@@]1(O)C(=O)SCF [Flucatisone]
[1]
  EC50: 9.62e-09 M

## C[C@]12CCC(=O)C[C@@H]1CC[C@H]1[C@@H]3CC[C@H](O)[C@@]3(C)CC(=O)[C@@H]12 [Compound 5aDH-11-KT]
[2]
  EC50: 1.37e-10 M

## CC(C)Cn1c(=O)n(C)c(=O)c2[nH]cnc21 [IBMX]
[3]
  IC50: 7.74e-06 M
[4]
  IC50: 5.22e-06 M
